Experiments:
Assay type in all cases: cell-based, mouse
p27 = assay: Immunoblotting, p27 expression in GL261; details: GL261, 300 µM temozolomide, 48 h
Description: (§1) GL261 cell was seeded at 2.5 × 10^4 cells per well in 24-well plates with culture medium supplemented with 10% FBS. After 24 h of incubation, the medium was changed to DMEM containing 10% FBS and 0.1%DMSO PBS, 300 μM temozolomide, 10 μM astaxanthin, or 10 μM adonixanthin was added for 6 and 48 h. Cells were lysed in a special buffer (RIPA buffer R0278; Sigma-Aldrich, St. Louis, MO, USA) with a protease inhibitor cocktail (Sigma-Aldrich), phosphatase inhibitor cocktails 2 and 3 (Sigma-Aldrich), and sample buffer (Wako, Osaka, Japan). The protein concentration was determined by comparison with a known concentration of bovine serum albumin using the BCA Protein Assay Kit (Thermo Fisher Scientific). The amount of total protein was 2 μg. Equal amounts of protein in sample buffer containing 10% 2-mercaptoethanol were subjected to sodium dodecyl sulphate polyacrylamide gel electrophoresis (SDS-PAGE) in 5-20% gradient gels (SuperSep Ace; Wako), and the separated proteins were transferred to polyvinylidene difluoride membrane (Immobilon-P; Merck Millipore Corporation, Bedford, MA, USA). After blocking for 30 min with Blocking One-P (Nacalai Tesque), we incubated the membranes with primary antibodies overnight at 4 °C. […] The band intensity was […] an Immuno Star LD (Wako). Band intensity was measured using an LAS-4000 UV mini Luminescent Image Analyzer (Fujifilm, Tokyo Japan) and Multi Gauge Version 3.0 (Fujifilm). The phosphorylation of ERK1/2, Akt, and p38 MAPK was measured by normalizing against total ERK1/2, total Akt, and total p38 MAPK. […]

GL261 cells = assay: BrdU cell proliferation assay; details: GL261, temozolomide group (concentration not printed for this test); control group 60.56 ± 1.40%
Description: GL261 cells were seeded onto 96-well plates at a density of 2 × 10^3 cells/well with DMEM supplemented with 10% FBS and then incubated for 24 h, after which the culture medium was changed to DMEM containing 10% FBS. Then, astaxanthin, adonixanthin, or temozolomide (Tokyo Chemical Industry Co., Ltd., Tokyo, Japan) were added to the culture. After 72 h of culture, the culture medium was changed to DMEM containing 10% FBS and treated with BrdU at 10 µM for 3 h. After that, immunocytochemistry was performed according to the protocol of anti-BrdU antibody (abcam, ab6326).

Bcl-2 = assay: Immunoblotting, Bcl-2 expression in GL261; details: GL261, 300 µM, 48 h
Description: as §1

Cn1nnc2c(C(N)=O)ncn2c1=O [temozolomide, reference compound]
expression of p27 (p27): significantly reduced
BrdU-positive cell rate (GL261 cells): 19.17 ± 1.77%
expression of Bcl-2 vs. control (Bcl-2): N.S.
